{"source": "patent US6756210B2", "about": "“Linoleic acid diol and glucuronide conjugate levels as diagnostic markers of disorders of abnormal regulation of cytochrome P450 metabolism of unsaturated fatty acids” (The Regents of the University of California, priority 2001, dated 2004)", "key": {"[1]": {"test_system": "insect cell culture expressing rat mEH", "assay": "Insect cell culture expressing rat mEH, toxicity of epoxide-containing xenobiotics", "format": "cell-based", "procedure": "(§1) The micosomal enzyme plays a significant role in the metabolism of xenobiotics such as polyaromatic toxicants. Additionally, polymorphism studies have underlined a potential role of this enzyme in relation to several diseases, such as emphysema, spontaneous abortion and several forms of cancer. Inhibition of recombinant rat and human mEH can be obtained using primary ureas, amides, and amines. For example, elaidamide, has a K1 of 70 nM for recombinant rat mEH."}, "recombinant rat mEH": {"biological_target": "T1, recombinant rat mEH (Rattus norvegicus, UniProt P07687)", "T1 sequence (P07687 1-455)": "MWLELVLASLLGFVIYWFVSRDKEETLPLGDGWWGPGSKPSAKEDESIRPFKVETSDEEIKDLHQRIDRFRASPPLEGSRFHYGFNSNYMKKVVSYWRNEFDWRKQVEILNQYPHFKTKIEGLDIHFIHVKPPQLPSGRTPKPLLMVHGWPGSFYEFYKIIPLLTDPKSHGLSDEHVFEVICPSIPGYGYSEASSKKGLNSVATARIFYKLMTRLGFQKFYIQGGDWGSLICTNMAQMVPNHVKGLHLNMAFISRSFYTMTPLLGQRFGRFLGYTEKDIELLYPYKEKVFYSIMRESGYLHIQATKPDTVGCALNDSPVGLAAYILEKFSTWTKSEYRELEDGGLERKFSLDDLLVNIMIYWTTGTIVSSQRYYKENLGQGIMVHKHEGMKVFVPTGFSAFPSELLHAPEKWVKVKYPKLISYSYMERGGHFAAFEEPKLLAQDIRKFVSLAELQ", "assay": "Inhibition of recombinant rat mEH", "format": "biochemical", "procedure": "as §1"}}, "data": [{"compound": "CCCCCCCC/C=C/CCCCCCCC(N)=O", "note": "[elaidamide]", "values": [{"measurement": "effect on toxicity of epoxide-containing xenobiotics", "setting": "[1]", "result": "enhances the toxicity effects"}, {"measurement": "inhibition kinetics with mEH", "setting": "recombinant rat mEH; non-covalent complex", "result": "apparent mix of competitive and non-competitive inhibition kinetics"}, {"measurement": "Ki", "setting": "recombinant rat mEH; read-out: K1 for recombinant rat mEH", "result": 70, "unit": "nM"}]}]}
